Entries after “also recorded” stand apart in the source; their conditions may differ. Counter-ions that a name gives are not always drawn. Non-standard residues stand in square brackets, D forms with d. Residues, ends and D or L forms follow the SMILES beside them.
Key:
[1] = system: rat model of DKA; test: Blood glucose in streptozotocin-induced diabetic ketoacidosis rats; type: in vivo; settings: for blood glucose, Day 4 (pre-tx): baseline before treatment on day 4, mean±SEM; for effect of treatment on blood glucose: day 4, result in words; for blood glucose, Day 4 (end of tx) / blood glucose, Day 4 (1 hour of tx): saline+insulin infusion, alone or after bolus BMS-182874 9 mg/kg or BQ123 1 mg/kg, mean±SEM; for blood glucose, Day 4 (end of tx): fifth hour
Procedure: (§1) Normotensive Sprague Dawley rats were kept on fasting for 2 hours with unlimited access to water. After 2 hours of fasting, rats were injected intraperitoneally with 150 mg/kg of streptozotocin in 0.05 mol/L citric acid, pH 4.3 to induced diabetes (Lam et al., 2005; Yuen et al., 2008), while non-diabetic control rats received an intraperitoneal injection of 0.05 mol/L citrate buffer (Lam et al., 2005; Yuen et al., 2008). Rats were allowed unlimited access to tap water and food. Each day rats were weighed and urine ketone levels were estimated by Urine Reagent Strips, 1K Parameter. Prior to streptozotocin or citrate buffer injection, baseline blood glucose levels were assessed by One Touch Ultra blood glucose strips from Lifescan, Milpitas, Calif., and baseline blood ketone levels were estimated using Cardiochek blood ketone analyzer. Blood glucose and ketone were measured again on day three and four to ensure the onset of hyperglycemia and ketoacidosis. […] Blood samples were withdrawn from the femoral […] for baseline reading prior to start of treatment, after the first hour of treatment, and then at the end of the treatment (fifth hour of experiment).
(§2) The animals were allowed to stabilize for at least 20 minutes following surgical procedures. Body weight, blood glucose, urinary ketone, blood ketone, arterial blood gases, blood electrolytes, mean arterial pressure, pulse pressure, heart rate, brain blood perfusion, brain and lung water content were determined in the following groups
(§3) Group 4: Diabetic saline/insulin treated (D-Saline+insulin treated): Rats were injected with streptozotocin in citrate buffer (150 mg/kg ip) to induce diabetes and ketoacidosis. On day three, rats were treated with 1.5 U/kg regular insulin (Humulin® R (Regular human insulin, rDNA origin). On day four, saline and insulin treatment was carried out. Rats were infused via cannulated femoral vein saline, 0.9% NaCl at 80 mL/kg/hr and 1.5 U/kg/hr regular insulin for one hour. During the next two through four hours, rats were infused with saline, 0.9% NaCl at 40 mL/kg/hr and 1.5 U/kg/hr regular insulin (Yuen et al., 2008).
(§4) Group 5: Diabetic BMS-182874/saline/insulin treated (D-BMS+Saline+insulin treated): Rats were injected with streptozotocin in citrate buffer (150 mg/kg ip) to induce diabetes and ketoacidosis. On day three, rats were treated with 1.5 U/kg regular insulin. On day four, rats were administered a bolus dose of selective ETA receptor antagonist, BMS-182874 (9 mg/kg), then saline and insulin treatment was carried out. Rats were infused via cannulated femoral vein saline, 0.9% NaCl at 80 mL/kg/hr and 1.5 U/kg/hr regular insulin for one hour. During the next two through four hours rats were infused with saline, 0.9% NaCl at 40 mL/kg/hr and 1.5 U/kg/hr regular insulin.
(§5) Group 6: Diabetic BQ123/saline/insulin treated (D-BQ+saline+insulin treated): Same as above for Group 5, except BQ123 (1 mg/kg body weight) is used as a substitute for BMS-182874 (9 mg/kg).
(§6) Data are presented as mean±SEM. The significance of differences was estimated by one-way analysis of variance (intra group comparison with respect to base line data) and two-way analysis of variance (inter group comparison with respect to corresponding time points from each groups) followed by application of the Dunnett's Multiple Comparisons and Bonferroni test respectively. A P value of less than 0.05 was considered to be significant. The statistical analysis was processed with GraphPad Prism software Version 5.00.

[2] = system: rat model of DKA; test: Blood ketone levels in diabetic ketoacidosis rats; type: in vivo; settings: for blood ketone levels, Day (pre tx): baseline before treatment; for blood ketone levels, Day (pre tx) / blood ketone levels, Day 4 (end of tx): mean±SEM; for effect of treatment on blood ketones: day 4, result in words (Table 2, FIG. 2); for blood ketone levels, Day 4 (end of tx): saline+insulin, alone or after bolus BMS-182874 9 mg/kg or BQ123 1 mg/kg
Procedure: as §1, §2, §3, §4, §5, §6

[3] = system: rat model of DKA; test: Brain blood perfusion (Laser Doppler Flowmetry) in diabetic ketoacidosis rats; type: in vivo; settings: day 4, FIG. 6, antagonist given with saline+insulin, result in words
Procedure: A burr hole was drilled into the rat skull approximately 2 millimeters (mm) to the left of midline, being careful not to disturb the brain tissue itself. Cerebrovascular perfusion was measured via a fiber optic probe (PF407) applied to the surface of the rat brain. The probe was connected to a Periflux PF2b 4000 Laser Doppler Flowmetry unit (Perimed, Stockholm, Sweden). The perfusion was determined by measuring the passage of red blood cells through the capillaries.
as §3, §4, §5, §6

[4] = system: rat model of DKA; test: Brain and lung water content in diabetic ketoacidosis rats; type: in vivo; settings: end of treatment; for effect on lung water content (pulmonary edema): FIG. 7, result in words; for effect on brain water content (cerebral edema): FIG. 8, result in words
Procedure: Water content in the lung and brain was determined to assess brain and pulmonary edema. Assessment of brain and lung water content was carried out as follows. At the end of treatment the animal was sacrificed and trachea was immediately tied, then the lungs were dissected out. The skull was opened and brain dissected out. Brain and lungs were rinsed with saline, and weighed (wet weight). The brain and lungs were kept for drying in an oven at a temperature of 60° C. for 72 hours, then weighed again (dry weight). The percent water content was calculated using the formula: [(wet weight−dry weight)/wet weight×100].
as §3, §4, §5, §6

[5] = system: rats induced with neurogenic pulmonary edema; settings: cited from earlier work
[6] = system: intrathecal (IT) injection of ET-1 into rats; settings: pre-treatment, intrathecal ET-1 in rats; cited from earlier work

Compound	blood glucose, Day 4 (pre-tx) [1]	effect of treatment on blood glucose [1]	blood glucose, Day 4 (end of tx) [1]	blood glucose, Day 4 (1 hour of tx) [1]	blood ketone levels, Day (pre tx) [2]	effect of treatment on blood ketones ([2]; hydrochloride)	effect of treatment on blood ketones ([2]; listed as BMS, hydrochloride)	blood ketone levels, Day 4 (end of tx) [2]	effect on cerebral blood perfusion ([3]; hydrochloride)	effect on cerebral blood perfusion ([3]; listed as BMS182874, hydrochloride)	effect on lung water content (pulmonary edema) [4]	effect on brain water content (cerebral edema) [4]	effect of treatment on blood ketones [2]	effect on cerebral blood perfusion [3]	effect on hypoxia and hypercapnea [5]	effect on pulmonary edema [6]	reduction of mortality rate [6]
Cc1noc(NS(=O)(=O)c2cccc3c(N(C)C)cccc23)c1C [BMS-182874, (5-Dimethylamino)-N-(3,4-dimethyl-5-isoxazolyl)-1-naphthalene sulfonamide hydrochloride]	522 ± 18 mg/dL	did not significantly affect blood glucose	263 ± 32 mg/dL	446 ± 36 mg/dL	31.01 ± 2.29 mg/dL	did not significantly affect blood ketones	produced a significant decrease in blood ketones	14.65 ± 2.70 mg/dL	significantly blocked; also recorded: prevented	prevented an insulin induced increase in cerebral blood perfusion	restored lung water content	restored brain water content	–	–	–	–	–
CC(C)C[C@@H]1NC(=O)[C@@H](C(C)C)NC(=O)[C@@H]2CCCN2C(=O)[C@@H](CC(=O)O)NC(=O)[C@@H](Cc2c[nH]c3ccccc23)NC1=O [BQ123, Cyclo(D-Trp-D-Asp-Pro-D-Val-Leu)] (cyclo(L[dW][dD]P[dV]))	484 ± 17 mg/dL	did not significantly affect blood glucose	312 ± 55 mg/dL	462 ± 55 mg/dL	28.22 ± 3.14 mg/dL	–	–	5.2 ± 0.36 mg/dL	–	–	restored lung water content	restored brain water content	particularly marked decrease in blood ketones; also recorded: significantly decrease the blood ketones	significantly blocked; also recorded: prevented an insulin induced increase in cerebral blood perfusion	ameliorated	prevented pulmonary edema	50%
Insulin: Humulin® R (Regular human insulin, rDNA origin), infused with saline	530 ± 20 mg/dL	produced a significant decrease in blood glucose	200 ± 20 mg/dL	444 ± 26 mg/dL	31.925 ± 5.28 mg/dL	–	–	12.8 ± 4.04 mg/dL	–	–	restored lung water content	restored brain water content	produced a significant decrease in blood ketones	produced a marked (#P<0.05) increase in cerebral blood perfusion	–	–	–

From US8980874B2, “Method and composition for treating diabetic ketoacidosis” (Midwestern University, priority 2009, dated 2015)
